From patent US10744128B2, “6-(5-membered heteroaryl)isoquinolin-3-yl-(5-membered heteroaryl) carboxamides and preparation and use thereof” (Samumed, LLC, priority 2017, dated 2020) come the findings set out here.

Like-named read-outs stand apart in the source and are kept apart here.

In one assay the target is recombinant GSK3β kinase (Homo sapiens (Human), UniProt P49841). The experiment in a line: GSK3β kinase assay (Ser/Thr 09 peptide Z-lyte, FRET). In kind it is biochemical.
Assay [1] concerns Wnt-responsive promoter (Sp5-Luc reporter) in SW480 colon carcinoma cells. The experiment in a line: Sp5-Luc reporter gene screening assay for Wnt activity in SW480 cells. Conditions: Homo sapiens, 36 to 48 hours, luminescence. In kind it is cell-based, human. The method in brief:
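SW480 cells stably carrying a luciferase reporter under an Sp5 promoter with eight TCF/LEF sites, plated at 4,000 cells/well in DMEM with 1% FBS and incubated 36 to 48 hours at 37° C. Luminescence normalized to DMSO-only cells; EC50 fitted by four-parameter nonlinear regression.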

For assay [2], the target named is recombinant DYRK1A kinase (Homo sapiens (Human), UniProt Q13627). The experiment in a line: DYRK1A kinase assay (Ser/Thr 18 peptide Z-lyte, FRET).
Method: Each compound was dissolved in DMSO as a 10 mM stock and used to prepare compound source plates.
This is a non-radioactive assay using fluorescence resonance energy transfer (FRET) between coumarin and fluorescein to detect kinase activity which is represented as a ratio of coumarin emission/fluorescein emission.
The mixture was allowed to incubate with the representative compounds for one hour at room temperature. All reactions were performed in duplicate. Unphosphorylated (“0% Control”) and phosphorylated (“100% control”) forms of Ser/Thr 18 served as control reactions. Additionally, an 11-point dose-response curve of Staurosporine (1 uM top) was run to serve as a positive compound control.
After incubation, Development Reagent A was diluted in Development Buffer then added to the reaction and allowed to further incubate for one hour at room temperature.
Dose-response curves were generated and inhibitory concentration (IC50) values were calculated using non-linear regression curve fit in the Dotmatics' Studies Software (Bishops Stortford, UK).
For assay [3], the system named is SW480 colon carcinoma cells. Description: Cell viability assay (CellTiter-Glo) in SW480 cells. The assay is classed as cell-based, human. Conditions: Homo sapiens, 96 h, four days.
In a further assay the test system is IL-6. The experiment in a line: IL-6 inhibition in LPS-stimulated human peripheral blood mononuclear cells (HTRF). In kind it is cell-based. The note with it: Homo sapiens, PBMC; for EC50: huPBMCs, LPS 50 ng/mL, 22 hours, IL-6 HTRF; for inhibition at 10 µM: read-out: percent inhibition at 10 μM. The method, boiled down:
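Fresh human PBMCs at 1×10e6 cells/mL in 1% FBS-RPMI were pretreated with compound for 2 h, then stimulated with 50 ng/mL E. coli 0111:B4 LPS for a further 22 h at 37 °C. IL-6 was measured by HTRF (665/620 nm ratio). Values were normalized to DMSO and fitted 4-parameter for EC50.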

The test system of assay [4] is primary human fibroblasts derived from IPF patients (LL29 cells), α-smooth muscle actin. The experiment in a line: Inhibition of fibrotic process: αSMA in TGF-β1 treated LL29 fibroblasts. The assay is classed as cell-based. The note with it: Homo sapiens, Fibroblast; for EC50: 96 h, LL29 cells, TGF-β1 20 ng/mL, 4 days, % cells positive for αSMA; for inhibition at 10 µM: read-out: percent inhibition at 10 μM. The method, boiled down:
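LL29 fibroblasts from IPF patients, in F12 medium with 1% FBS, treated with TGF-β1 plus compound; TGF-β1 with DMSO as positive control, DMSO alone as negative control. After 4 days' incubation, SYTOX green nucleic acid stain added at 1 μM final, 30 min at room temperature.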

Setting [5] is: GSK3β kinase, 46 μM ATP, one hour, method calls values IC50.
Where [6] appears, read: DYRK1A kinase, 30 μM ATP, one hour, method calls values IC50.

recombinant GSK3β kinase, sequence (P49841 whole entry): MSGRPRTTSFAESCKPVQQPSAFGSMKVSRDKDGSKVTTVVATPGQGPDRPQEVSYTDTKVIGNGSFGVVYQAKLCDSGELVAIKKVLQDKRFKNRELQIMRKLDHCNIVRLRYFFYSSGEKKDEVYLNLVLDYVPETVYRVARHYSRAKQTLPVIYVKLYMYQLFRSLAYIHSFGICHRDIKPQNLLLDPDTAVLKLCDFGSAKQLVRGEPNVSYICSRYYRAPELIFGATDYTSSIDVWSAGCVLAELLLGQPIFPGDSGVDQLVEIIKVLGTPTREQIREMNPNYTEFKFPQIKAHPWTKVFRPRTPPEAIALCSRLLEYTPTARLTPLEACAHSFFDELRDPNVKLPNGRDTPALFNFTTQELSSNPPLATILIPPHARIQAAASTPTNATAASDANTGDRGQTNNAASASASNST

As to `CCN1CCC(n2cc(C(=O)Nc3cc4cc(-c5cn(C)nn5)ccc4cn3)cn2)CC1` [Compound 31, 1-(1-Ethylpiperidin-4-yl)-N-(6-(1-methyl-1H-1,2,3-triazol-4-yl)isoquinolin-3-yl)-1H-pyrazole-4-carboxamide], the EC50 at recombinant GSK3β kinase (setting [5]) was found to be 286 nM; in assay [1], 21 nM; in assay [2] (setting [6]), 3 nM; in assay [3], 39 nM; in the assay on IL-6 it was 688 nM; in assay [4], 298 nM.

As for `CN1CCN(c2nc(C(=O)Nc3cc4cc(-c5cnn(C)c5)ccc4cn3)cs2)CC1` [Compound 26, N-(6-(1-Methyl-1H-pyrazol-4-yl)isoquinolin-3-yl)-2-(4-methylpiperazin-1-yl)thiazole-4-carboxamide], the EC50 was 2190 nM on recombinant GSK3β kinase (setting [5]); 1750 nM in assay [1]; 3 nM in assay [2] (setting [6]); 3410 nM in assay [3]; > 10000 nM with IL-6; 4700 nM in assay [4]. The inhibition at 10 µM in the assay on IL-6 worked out at 40.3%.

Take `Cc1csc(C(=O)Nc2cc3cc(-c4cncn4C)ccc3cn2)n1` [Compound 56, 4-Methyl-N-(6-(1-methyl-1H-imidazol-5-yl)isoquinolin-3-yl)thiazole-2-carboxamide]: the EC50 is 9990 nM on recombinant GSK3β kinase (setting [5]); 2310 nM in assay [1]; 5 nM in assay [2] (setting [6]); 3070 nM in assay [3]; 8920 nM in the assay on IL-6; 3190 nM in assay [4].

For `Cn1cc(-c2ccc3cnc(NC(=O)c4cnn(C5CCN(C6CC6)CC5)c4)cc3c2)cn1` [Compound 9, 1-(1-cyclopropylpiperidin-4-yl)-N-(6-(1-methyl-1H-pyrazol-4-yl)isoquinolin-3-yl)-1H-pyrazole-4-carboxamide], the EC50 on recombinant GSK3β kinase (setting [5]) was 1660 nM; in assay [1], 39 nM; in assay [2] (setting [6]), 2 nM; in assay [3] it was 104 nM; with IL-6, 1100 nM; in assay [4], > 10000 nM. Besides, the inhibition at 10 µM in assay [4] came to 33.4%.

As to `Cc1nnc(C(=O)Nc2cc3cc(-c4cncn4C)ccc3cn2)s1` [Compound 59, 5-Methyl-N-(6-(1-methyl-1H-imidazol-5-yl)isoquinolin-3-yl)-1,3,4-thiadiazole-2-carboxamide], the EC50 at recombinant GSK3β kinase (setting [5]) was 1420 nM; in assay [1] it was 1890 nM; in assay [2] (setting [6]), 4 nM; in assay [3] it was 3320 nM; with IL-6, > 10000 nM; in assay [4], 1420 nM. In addition, in the assay on IL-6, the inhibition at 10 µM stood at 0%.

`Cc1nnc(C(=O)Nc2cc3cc(-c4cncn4C)ccc3cn2)o1` [Compound 58, 5-Methyl-N-(6-(1-methyl-1H-imidazol-5-yl)isoquinolin-3-yl)-1,3,4-oxadiazole-2-carboxamide]: the EC50 at recombinant GSK3β kinase (setting [5]) is 4340 nM; in assay [1], 1310 nM; in assay [2] (setting [6]) it was 9 nM; in assay [3] it was 2960 nM; in the assay with IL-6, > 10000 nM; in assay [4], 1280 nM. Besides, in the assay with IL-6, the inhibition at 10 µM was determined as 9.5%.

`Cn1cnc(C(=O)Nc2cc3cc(-c4cncn4C)ccc3cn2)n1` [Compound 52, 1-Methyl-N-(6-(1-methyl-1H-imidazol-5-yl)isoquinolin-3-yl)-1H-1,2,4-triazole-3-carboxamide]: the EC50 on recombinant GSK3β kinase (setting [5]) is 5030 nM; in assay [1] it was 2180 nM; in assay [2] (setting [6]), 9 nM; in assay [3], 3610 nM; in the assay with IL-6, > 10000 nM; in assay [4], > 10000 nM. For the same compound, the inhibition at 10 µM is 1.1% in the assay on IL-6 and 33.8% in assay [4].

As to `CC(C)N1CCC(n2cc(C(=O)Nc3cc4cc(-c5cnn(C)c5)ccc4cn3)nn2)CC1` [Compound 14, 1-(1-Isopropylpiperidin-4-yl)-N-(6-(1-methyl-1H-pyrazol-4-yl)isoquinolin-3-yl)-1H-1,2,3-triazole-4-carboxamide], the EC50 at recombinant GSK3β kinase (setting [5]) is 2750 nM; in assay [1] it was 95 nM; in assay [2] (setting [6]), 6 nM; in assay [3], 240 nM; in the assay on IL-6 it was > 10000 nM; in assay [4] it was 410 nM. The inhibition at 10 µM in the assay with IL-6 came out at 46%.

Take `Cn1cc(-c2ccc3cnc(NC(=O)c4coc(C5CCNCC5)n4)cc3c2)nn1` [Compound 36, N-(6-(1-Methyl-1H-1,2,3-triazol-4-yl)isoquinolin-3-yl)-2-(piperidin-4-yl) oxazole-4-carboxamide]: the EC50 was determined as 458 nM at recombinant GSK3β kinase (setting [5]); 114 nM in assay [1]; 19 nM in assay [2] (setting [6]); 399 nM in assay [3]; 2540 nM in the assay with IL-6; 596 nM in assay [4].

For the compound `Cn1cc(-c2ccc3cnc(NC(=O)c4coc(C5CCNCC5)n4)cc3c2)cn1` [Compound 19, N-(6-(1-Methyl-1H-pyrazol-4-yl)isoquinolin-3-yl)-2-(piperidin-4-yl)oxazole-4-carboxamide], the EC50 stood at 979 nM on recombinant GSK3β kinase (setting [5]); 106 nM in assay [1]; 12 nM in assay [2] (setting [6]); 300 nM in assay [3]; 695 nM in the assay on IL-6; 170 nM in assay [4].

Take `[2H]C([2H])([2H])n1cc(-c2ccc3cnc(NC(=O)c4cnn(C5CCNCC5)c4)cc3c2)cn1` [Compound 3, N-(6-(1-(Methyl-d3)-1H-pyrazol-4-yl)isoquinolin-3-yl)-1-(piperidin-4-yl)-1H-pyrazole-4-carboxamide]: the EC50 on recombinant GSK3β kinase was > 10000 nM; in assay [1], 23 nM; in assay [2] it was 3 nM; in assay [3], 38 nM; in the assay with IL-6, 1040 nM; in assay [4] it was 74 nM.

As for `Cn1cc(-c2ccc3cnc(NC(=O)c4cn(C5CCNCC5)nn4)cc3c2)nn1` [Compound 33, N-(6-(1-Methyl-1H-1,2,3-triazol-4-yl)isoquinolin-3-yl)-1-(piperidin-4-yl)-1H-1,2,3-triazole-4-carboxamide], the EC50 at recombinant GSK3β kinase (setting [5]) stood at 316 nM; in assay [1] it was 71 nM; in assay [2] (setting [6]), 7 nM; in assay [3], 257 nM; in the assay on IL-6, 852 nM; in assay [4], 562 nM.

Turning to `Cn1cc(C(=O)Nc2cc3cc(-c4cncn4C)ccc3cn2)cn1` [Compound 40, 1-Methyl-N-(6-(1-methyl-1H-imidazol-5-yl)isoquinolin-3-yl)-1H-pyrazole-4-carboxamide], the EC50 is 1830 nM on recombinant GSK3β kinase (setting [5]); 109 nM in assay [1]; 4 nM in assay [2] (setting [6]); 442 nM in assay [3]; 751 nM in the assay on IL-6; > 10000 nM in assay [4]. For the same compound, the inhibition at 10 µM in assay [4] was determined as 23.2%.

On to `Cn1cc(CC(=O)Nc2cc3cc(-c4cncn4C)ccc3cn2)cn1` [Compound 47, N-(6-(1-methyl-1H-imidazol-5-yl)isoquinolin-3-yl)-2-(1-methyl-1H-pyrazol-4-yl)acetamide], for which the EC50 on recombinant GSK3β kinase (setting [5]) is 29 nM; in assay [1] it was 556 nM; in assay [2] (setting [6]), 3 nM; in assay [3] it was 607 nM; in the assay on IL-6 it was 388 nM; in assay [4], 94 nM.

With `Cn1ccc(C(=O)Nc2cc3cc(-c4cncn4C)ccc3cn2)n1` [Compound 46, 1-Methyl-N-(6-(1-methyl-1H-imidazol-5-yl)isoquinolin-3-yl)-1H-pyrazole-3-carboxamide], the EC50 on recombinant GSK3β kinase (setting [5]) is 1770 nM; in assay [1], 1250 nM; in assay [2] (setting [6]), 5 nM; in assay [3], 2180 nM; with IL-6 it was > 10000 nM; in assay [4], 1530 nM. The inhibition at 10 µM in the assay on IL-6 amounted to 46.1%.

Take `[2H]c1nc(NC(=O)c2cnn(C(C)C)c2)cc2cc(-c3cncn3C)ccc12` [Compound 43, 1-Isopropyl-N-(6-(1-methyl-1H-imidazol-5-yl)isoquinolin-3-yl-1-d)-1H-pyrazole-4-carboxamide]: the EC50 at recombinant GSK3β kinase was found to be 3070 nM; in assay [1], 48 nM; in assay [2], 2 nM; in assay [3], 83 nM; with IL-6 it was 251 nM; in assay [4], 151 nM.

`CC(C)N1CCC(n2cc(C(=O)Nc3cc4cc(-c5cn(C)nn5)ccc4cn3)nn2)CC1` [Compound 35, 1-(1-Isopropylpiperidin-4-yl)-N-(6-(1-methyl-1H-1,2,3-triazol-4-yl)isoquinolin-3-yl)-1H-1,2,3-triazole-4-carboxamide]: the EC50 on recombinant GSK3β kinase (setting [5]) came out at 295 nM; in assay [1], 111 nM; in assay [2] (setting [6]), 10 nM; in assay [3] it was 306 nM; with IL-6 it was 2110 nM; in assay [4], 635 nM.
